Experimental data: US20220362299A1, “ENGINEERED NATURAL KILLER CELLS AND METHODS FOR USING THE SAME IN IMMUNOTHERAPY AND AUTOPHAGY INHIBITON TECHNIQUES” (Purdue Research Foundation, priority 2019, published 2022)

Tests used:
CD73 = CD73 activity of GBM43 cells (AMP hydrolysis, malachite green phosphate assay); format: cell-based, human; settings: various concentrations of CQ, 24 h
Procedure: To test for CD73 activity and its ability to generate adenosine, GBM43 cells were seeded at 2×10^4 cells per well in a 96-well plate in complete DMEM. After overnight incubation, GBM43 cells were incubated with anti-CD73 scFv following uPA (100 nM)-mediated cleavage from either CD73.mCAR-NK92 or CD73.mCAR-pNK cells during incubation for 6 hours. Then, the cell medium was removed and cells were rinsed three times with phosphate-free buffer (117 mM NaCl, 5.3 mM KCl, 1.8 mM MgCl2, 26 mM NaHCO3, 10 mM glucose, pH 7.4, diluted in ddH2O). AMP (250 μM final), diluted in phosphate-free buffer, was added and incubated for 10 min at 37° C. Finally, the phosphate (Pi) concentrations resulting from AMP hydrolysis were measured using a malachite green phosphate assay kit following the manufacturer's instructions.

GBM43 cells = test: Surface expression of NKG2DL, CD73 and GD2 on GBM43 cells after CQ (flow cytometry); format: cell-based, human; settings: 24 h
Procedure: In addition to the increase in NK cell intratumoral infiltration, NK2G2DL expression (MFI and percentage) on GBM43 cells after 24 hours of treatment with various concentrations of CQ was evaluated.

GBM43-Luc cells = test: Orthotopic GBM43 (Luc) xenograft model; format: in vivo, NSG mice
Procedure: Additionally, orthotopic GBM xenografts were generated using NSG mice as previously described. Briefly, on day 0, the GBM43 (Luc) cells (1×10^5) were stereotactically implanted into the right forebrain through a digitalized stereotactic delivery system. […] CD73.mCAR-pNK cells were administered once a week for three weeks. Tumor volumes were monitored and recorded using the Spectral Ami Optical imaging system. Body weights of the mice were also recorded during the treatment period. At the end of the treatment, the mice were sacrificed and whole brain tissues from each mouse were harvested for adenosine measurement and IHC/IF analyses.
Immunohistochemistry (IHC) and immunofluorescence (IF) staining were carried out at the Histology Research Laboratory at the Purdue University College of Veterinary Medicine (West Lafayette, Ind.). Briefly, the tumors were fixed in 10% neutral-buffered formalin, embedded in paraffin, and cut into 3-5 μm sections.
For intracranial GBM xenografts, the NK cells in tumors were detected through the staining using human NKp46/NCR1 antibody. CCL5 and CXCL10 expression in the tumors were detected through the staining using human CCL5/RANTES antibody and CXCL10 antibody, respectively. CD73 expression in the tumors was detected through the staining using human CD73 antibody.
In addition to the foregoing, intratumoral adenosine concentrations were also assessed. Brain tissues were harvested post-treatment, rinsed with cold PBS and homogenized in PBS. After that, the suspension was centrifuged at 10,000 g for 10 minutes at 4° C. and the supernatant was collected. Adenosine concentrations were determined using an Adenosine Assay Kit according to the manufacturer's directions. The IHC staining was performed as described above.

Chloroquine diphosphate salt [CQ]
production of adenosine in GBM cells mediated by CD73 (CD73): significantly reduced
expression of CD73 (MFI) on GBM43 cells (GBM43 cells; CQ 6.25 μM): ~70 % of control
expression of GD2 (MFI) on GBM43 cells (GBM43 cells; CQ 50 μM or higher): decreased
NKG2DL expression (% and MFI) on GBM43 cells (GBM43 cells; CQ at various concentrations): increased significantly
percentage expression (%) of GD2 on GBM43 cells (GBM43 cells; CQ up to 100 μM then constant, control cells ~58%): ~46%
tumor growth (bioluminescence imaging) (GBM43-Luc cells; CQ 50 mg/kg IP, CD73.mCAR-pNK intracranial, weekly for three weeks, vs control group): no significant effect
CCL5 expression in tumor tissues (IHC) (GBM43-Luc cells; mouse, in vivo): robustly up-regulated
CXCL10 expression in tumor tissues (IHC) (GBM43-Luc cells; mouse, in vivo): robustly up-regulated
crossing of the blood-brain barrier in vivo (GBM43-Luc cells; mouse, in vivo): able to cross the blood-brain barrier
